The structures appear in SMILES notation. Converted amounts (≈) assume the structure as drawn. The source made the active and inactive calls. The rule behind the calls is not given here. A value given as a limit tells only on which side of the number the result lay.

In ChEMBL document CHEMBL5696439 (Cancer Res, 2010) one finds Activity, IC50 and inhibition data, which are given here for three compounds.

Test [1] relates to MDA-MB-361. The test can be described thus: Induction of apoptosis in human MDA-MB-361 cells assessed as increase in G1 phase at 5 micromol/L incubated for 24 hrs by FACS analysis relative to control. The settings on record: dose 5 µmol/L, at 5 µM. Format: functional. Background: A flow cytometer gives signals particle by particle.
Test [2] relates to MDA-MB-361. The test can be described thus: Induction of apoptosis in human MDA-MB-361 cells assessed as little increase in G1 phase at 5 micromol/L incubated for 12 hrs by FACS analysis relative to control. Format: functional, cell-based. As to conditions: dose 5.0 µmol/L.
Test [3] has as its system MDA-MB-361. Briefly: Induction of apoptosis in human MDA-MB-361 cells assessed as increase in caspase-3/caspase-7 activity at 1 to 6 uM incubated for 24 to 48 hrs. Format: functional, cell-based. The settings on record: dose 1-6 µM, time 24-48 hrs.
For test [4], the system named is LNCaP. Briefly: Induction of apoptosis in human LNCaP cells assessed as increase in caspase-3/caspase-7 activity at 1 to 6 uM incubated for 24 to 48 hrs. Format: functional, cell-based. The settings on record: dose 1-6 µM, time 24-48 hrs.
The subject of test [5] is A498. The test can be described thus: cells. As to conditions: Homo sapiens, A498, 72 h.
Description: Antiproliferative activity against human A498 cells assessed as cell growth inhibition incubated for 3 days by MTS assay
Test [6] concerns MDA-MB-361. Briefly: Antiproliferative activity against human MDA-MB-361 cells assessed as cell growth inhibition incubated for 2 days by MTS assay. The settings on record: MDA-MB-361, 48 h. Format: functional, cell-based.
Test [7] has as its system MDA-MB-361. Briefly: Antiproliferative activity against human MDA-MB-361 cells assessed as cell growth inhibition incubated for 1 days by MTS assay. As to conditions: MDA-MB-361, 24 h. Format: functional, cell-based. (In general: Formazan colour is commonly taken as a measure of viable cells.)
Test [8] deals with MDA-MB-361. Briefly: Antiproliferative activity against human MDA-MB-361 cells assessed as cell growth inhibition incubated for 3 days by MTS assay. As to conditions: MDA-MB-361, 72 h. Format: functional, cell-based.
In test [9] the test system is A498. The test can be described thus: cells. As to conditions: Homo sapiens, A498, 24 h.
Description: Antiproliferative activity against human A498 cells assessed as cell growth inhibition incubated for 1 days by MTS assay
For test [10], the system named is A498. Briefly: cells. As to conditions: Homo sapiens, A498, 48 h.
Description: Antiproliferative activity against human A498 cells assessed as cell growth inhibition incubated for 2 days by MTS assay
The subject of test [11] is MDA-MB-361. Briefly: Induction of apoptosis in PI3K/mTOR hyperactive human MDA-MB-361 cells assessed as massive cell death at 0.001 to 100 micromol/L incubated for 48 hrs by FACS analysis. Format: functional, cell-based. As to conditions: dose 0.001-100 µmol/L.
In another test the test system is HEK293. The test can be described thus: Antiproliferative activity against HEK293 cells assessed as reduction in polysomes at 0.5 micromol/L incubated for 16 hrs. As to conditions: dose 0.5 µmol/L. Format: functional, Homo sapiens.
Test [12] concerns A549. The test can be described thus: Antiproliferative activity against human A549 cells assessed as suppression in cell growth at 10 micromol/L incubated for 3 days by MTS assay relative to control. As to conditions: dose 10 µmol/L; time 3 day; at 10 µM. Format: functional.
Test [13] deals with U-87 MG. The test can be described thus: Antitumor activity against human U-87MG cells assessed as reduction in lactate production at 1 micromol/L incubated for 24 hrs relative to control. Format: functional, U-87MG ATCC. Also noted: scale not given: the % may be the effect or the level left. The settings on record: dose 1 µmol/L, at 1 µM.
The test system of test [14] is U-87 MG. Briefly: Antiproliferative activity against human U-87MG cells assessed as suppression in cell growth at 10 micromol/L incubated for 3 days by MTS assay relative to control. Format: functional, U-87MG ATCC. The settings on record: dose 10 µmol/L; time 3 day; at 10 µM.
Test [15] has as its system MDA-MB-361. Briefly: Inhibition of protein synthesis in human MDA-MB-361 cells at 3 micromol/L incubated for 3 hrs by [3H] methionine incorporation based scintillation counter analysis. Format: functional, cell-based. The settings on record: dose 3.0 µmol/L.
The subject of test [16] is MDA-MB-361. The test can be described thus: Induction of apoptosis in HER2 hyperactive human MDA-MB-361 cells assessed as massive cell death at 0.001 to 100 micromol/L incubated for 48 hrs by FACS analysis. Format: functional, cell-based. As to conditions: dose 0.001-100 µmol/L.
Test [17] concerns MDA-MB-361. Briefly: Induction of apoptosis in human MDA-MB-361 cells assessed as PARP cleavage at 0.5 to 5 micromol/L incubated for 48 hrs by Western blot analysis. Format: functional, cell-based. As to conditions: dose 0.5-5 µmol/L. On the technique in general: Immunoblotting shows a protein as a band on a membrane.
For test [18], the system named is A498. Briefly: Antiproliferative activity against human A498 cells assessed as suppression in cell growth at 10 micromol/L incubated for 3 days by MTS assay relative to control. Format: functional. As to conditions: dose 10 µmol/L; time 3 day; at 10 µM.
Test [19] has as its target T1, Serine/threonine-protein kinase mTOR (Homo sapiens, UniProt P42345). The test can be described thus: Inhibition of mTOR in human MDA-MB-361 cells assessed as 4EBP1 phosphorylation at S65 level at 1 micromol/L incubated 16 hrs by westernblot analysis. The settings on record: dose 1.0 µmol/L. Format: cell-based.
Test [20] has as its system MDA-MB-361. Briefly: Antitumor activity against human MDA-MB-361 cells assessed as reduction in oxygen consumption rate at 1 micromol/L incubated for 1 hrs relative to control. The settings on record: dose 1 µmol/L, at 1 µM. Format: functional. Also noted: scale not given: the % may be the effect or the level left.
The subject of test [21] is A549. The test can be described thus: Antitumor activity against human A549 cells xenografted in female nude mouse model assessed as substantial regression in large tumor growth at 200 mg/kg, iv administered once a week. Format: functional, organism-based.
In test [22] the test system is MDA-MB-361. Briefly: Induction of apoptosis in HER2 hyperactive human MDA-MB-361 cells assessed as cell death at 0.001 to 100 micromol/L incubated for 24 hrs by FACS analysis. The settings on record: dose 0.001-100 µmol/L. Format: functional, cell-based.
Test [23] concerns MDA-MB-361. The test can be described thus: Antiproliferative activity against human MDA-MB-361 cells assessed as suppression in cell growth at 10 micromol/L incubated for 3 days by MTS assay relative to control. Format: functional. As to conditions: dose 10 µmol/L; time 3 day; at 10 µM.
The target in test [24] is T1, Serine/threonine-protein kinase mTOR. The test can be described thus: Inhibition of mTOR in human MDA-MB-361 cells assessed as 4EBP1 phosphorylation at T70 level at 1 micromol/L incubated 16 hrs by westernblot analysis. Format: cell-based. As to conditions: dose 1.0 µmol/L.
For test [25], the system named is MDA-MB-361. The test can be described thus: Induction of apoptosis in PI3K/mTOR hyperactive human MDA-MB-361 cells assessed as cell death at 0.001 to 100 micromol/L incubated for 24 hrs by FACS analysis. Format: functional, cell-based. The settings on record: dose 0.001-100 µmol/L.
Test [26] addresses T1, Serine/threonine-protein kinase mTOR. The test can be described thus: Inhibition of mTOR in human MDA-MB-361 cells assessed as 4EBP1 phosphorylation at T37/46 level at 1 micromol/L incubated 16 hrs by westernblot analysis. Format: cell-based. As to conditions: dose 1.0 µmol/L.
The test system of test [27] is A549. The test can be described thus: Antitumor activity against VHL null-human A549 cells xenografted in female nude mouse model assessed as inhibition in tumor growth at 25 mg/kg, iv administered 5 times a week. Format: functional, organism-based.
For test [28], the system named is A498. Briefly: Antiproliferative activity against human A498 cells assessed as reduction in cell size at 1 micromol/L incubated for 48 hrs by Flow cytometry analysis relative to control. Format: functional. Also noted: scale not given: the % may be the effect or the level left. As to conditions: dose 1 µmol/L, at 1 µM.
Test [29] deals with LNCaP. The test can be described thus: Antiproliferative activity against human LNCaP cells assessed as suppression in cell growth at 10 micromol/L incubated for 3 days by MTS assay relative to control. Format: functional. As to conditions: dose 10 µmol/L; time 3 day; at 10 µM.
Test [30] concerns U-87 MG. The test can be described thus: Antitumor activity against human U-87MG cells assessed as lactate production incubated for 24 hrs. As to conditions: U-87MG ATCC, dose 0.01-10 µmol/L. Format: functional, cell-based.

As for `Oc1cccc(-c2nc(N3CCOCC3)c3oc4ncccc4c3n2)c1` [PI-103], the Activity with MDA-MB-361 [1] was 27%. Moreover, the outcome in the test on MDA-MB-361 [2], with MDA-MB-361 [3] and in the test with LNCaP [4] was Active.

With `CC(=O)O[C@H]1C(=O)[C@@]2(C)[C@H]([C@H](OC(=O)c3ccccc3)[C@]3(O)C[C@H](OC(=O)[C@H](O)[C@@H](NC(=O)c4ccccc4)c4ccccc4)C(C)=C1C3(C)C)[C@]1(OC(C)=O)CO[C@@H]1C[C@@H]2O` [PACLITAXEL], the concentration for half-maximal inhibition (IC50) (in general, the point on the concentration scale where inhibition reaches its midpoint) was 0.03 µg/mL (≈ 0.0351 µM) in the test with A498 [5]; over 0.15 µg/mL in the test on MDA-MB-361 [6]; over 0.15 µg/mL with MDA-MB-361 [7]; 0.004 µg/mL (≈ 0.00468 µM) in the test on MDA-MB-361 [8]; over 0.15 µg/mL in the test with A498 [9]; over 0.15 µg/mL in the test on A498 [10].

With `CO[C@H]1C[C@@H]2CC[C@@H](C)[C@@](O)(O2)C(=O)C(=O)N2CCCC[C@H]2C(=O)O[C@H]([C@H](C)C[C@@H]2CC[C@@H](OC(=O)C(C)(CO)CO)[C@H](OC)C2)CC(=O)[C@H](C)/C=C(\C)[C@@H](O)[C@@H](OC)C(=O)[C@H](C)C[C@H](C)/C=C/C=C/C=C/1C` [TEMSIROLIMUS], the outcome in the test with MDA-MB-361 [11], in the test on MDA-MB-361 [16], with MDA-MB-361 [17], in the test with A549 [21], in the test with MDA-MB-361 [22] and in the test with MDA-MB-361 [25] was inactive. The Activity is listed as 1.02 in the test with HEK293; “<=50%” in the test with A549 [12]; 80% in the test with U-87 MG [13]; “<=50%” in the test on U-87 MG [14]; “<=50%” in the test on A498 [18]; 82% in the test with MDA-MB-361 [20]. Moreover, the Activity entry in the test on MDA-MB-361 [23] is “<=50%”; with A498 [28] it was 97%; in the test with LNCaP [29], “<=50%”; with U-87 MG [30], “Dose-Dependent Effect”. The inhibition result (in the test with MDA-MB-361 [15]; in [26]) was “inactive” throughout. For the same compound, the inhibition result (in [19]; in [24]; with A549 [27]) was “Active” each time.
